In publication PMC10218905, “Improving the Enzymatic Activity and Stability of a Lytic Polysaccharide Monooxygenase” (International Journal of Molecular Sciences, 2023):

How the values were obtained:
Experiment in all cases: spectrophotometric oxidation assay at […] nm
Format in all cases: biochemical
Conditions in all cases: 100 µM H2O2 co-substrate, copper-loaded enzyme, 100 mM sodium acetate pH 6.0, 30 °C; read-out: Km app
BaLPMO10A [1] = target: T1, BaLPMO10A (Bacillus velezensis, UniProt A7Z541)
T1 construct: gene RBAM_017540; mature enzyme with native N-terminus; N-terminal SUMO tag cleaved, C-terminal 6xHis tag; pET-20b, E. coli BL21(DE3); copper-saturated
T1 sequence (A7Z541 entry or part of it): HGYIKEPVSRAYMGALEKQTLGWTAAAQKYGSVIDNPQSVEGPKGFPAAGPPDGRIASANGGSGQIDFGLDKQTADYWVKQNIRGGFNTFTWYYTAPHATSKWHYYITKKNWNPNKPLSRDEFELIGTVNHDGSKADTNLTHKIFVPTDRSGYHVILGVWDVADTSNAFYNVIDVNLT

BaLPMO10A [2] = target: T2, BaLPMO10A (Bacillus velezensis, UniProt A7Z541, I31V/E151D, form not given)
T2 construct: gene RBAM_017540; mature enzyme with native N-terminus; N-terminal SUMO tag cleaved, C-terminal 6xHis tag; pET-20b, E. coli BL21(DE3); copper-saturated
T2 sequence (A7Z541 entry or part of it I31V/E151D, form open): as the sequence (A7Z541 entry or part of it) above, with I4V, E124D counted along it

BaLPMO10A [3] = target: T3, BaLPMO10A (Bacillus velezensis, UniProt A7Z541, V67L, form not given)
T3 construct: gene RBAM_017540; mature enzyme with native N-terminus; N-terminal SUMO tag cleaved, C-terminal 6xHis tag; pET-20b, E. coli BL21(DE3); copper-saturated
T3 sequence (A7Z541 entry or part of it V67L, form open): as the sequence (A7Z541 entry or part of it) above, with V40L counted along it

BaLPMO10A [4] = target: T4, BaLPMO10A (Bacillus velezensis, UniProt A7Z541, V67L/E151D, form not given)
T4 construct: gene RBAM_017540; mature enzyme with native N-terminus; N-terminal SUMO tag cleaved, C-terminal 6xHis tag; pET-20b, E. coli BL21(DE3); copper-saturated
T4 sequence (A7Z541 entry or part of it V67L/E151D, form open): as the sequence (A7Z541 entry or part of it) above, with V40L, E124D counted along it

COc1cccc(OC)c1O [2,6-DMP, 2,6-Dimethoxyphenol]
Km (BaLPMO10A [1]): 41.3 ± 7.33 mM | Km (BaLPMO10A [2]): 95.5 ± 9.5 mM | Km (BaLPMO10A [3]): 32.5 ± 3.6 mM | Km (BaLPMO10A [4]): 33.5 ± 1.6 mM
